Test [1] concerns primary fibroblasts from confirmed cases of IPF (fibroblastic foci). The experiment in a line: Collagen cross-link formation in in vitro fibroblastic foci model of IPF. The class given is cell-based, human. The following applies: TGF-β1 stimulated foci, six weeks culture with inhibitor. The text has this: Reduction of Collagen Cross-Link Formation in an in vitro Fibroblastic Foci Model of IPF
The lung tissue of patients with idiopathic pulmonary fibrosis (IPF) is characterised by dense collections of myofibroblasts and extracellular matrix (ECM) termed ‘fibroblastic foci’. Using a novel in vitro model of fibroblastic foci (Jones et al., AJRCCM 191; 2015:A4912) the formation of lysyl oxidase (LOX) mediated collagen cross-links and the effects of the nonselective LOX inhibitor β-aminopropionitrile (BAPN) as well lysyl oxidase like-2 (LOXL2)-selective inhibitors were investigated.
Cultures of primary fibroblasts were grown out from clinical diagnostic biopsies of fibrotic lung and stored in liquid nitrogen. […]
To quantify collagen cross-links (Robins Biochem Soc Trans 2007; 35(5): 849-852; Saito et al Anal. Biochem. 1997; 253: 26-32; Sims, Avery & Bailey Methods in Molecular Biology 2000; vol 139: 11-26), cultures were treated with potassium borohydride to stabilise the reducible immature cross-links, and hydrolysed in 6N HCl at 100° C. for 16 hr. Total collagen content was assessed by hydroxyproline assay. Immature cross-links were assessed by LC/MS/MS and mature pyridinoline cross-links by ELISA. Cross-link data is expressed as moles of cross-link per mole collagen. […]

Another test has as its target Recombinant human MAO-B (Homo sapiens (Human), UniProt P27338). The test can be described thus: Human recombinant MAO-B inhibition. It is filed as biochemical. The settings on record: benzylamine 100 μM. The gist of the method: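 Recombinant human MAO-B (0.06 mg/mL) was the enzyme source, with benzylamine substrate at 100 μM. Otherwise run as for the human SSAO/VAP-1 assay.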

Test [2] has as its system CCl4 induced liver fibrosis. The test can be described thus: CCl4 induced liver fibrosis model. The class given is in vivo, rat. The settings on record: 0.1-100 mg/Kg. As for the experimental part:
Inhibition of CCl4 Induced Liver Fibrosis
An analysis of the use of LOXL2 inhibitors to treat inflammatory/fibrotic diseases is performed through the use of a CCl4 induced liver fibrosis model. Liver injury is frequently followed by complete parenchymal regeneration due to regenerative potency of hepatocytes. Continuous liver injury due to the administration of CCl4 leads to extracellular matrix accumulation, accompanied by recurrent hepatocyte necrosis, inflammation, and regenerative processes, causing liver fibrosis and consequently liver cirrhosis (see Natsume, M, et al., Attenuated liver fibrosis and depressed serum albumin levels in carbon tetrachloride-treated IL-6-deficient mice. J. Leukoc. Biol., 1999, 66, 601-608 also See Yao, Q, Y, et al. Inhibition by curcumin of multiple sites of the transforming growth factor-beta1 signalling pathway ameliorates the progression of liver fibrosis induced by carbon tetrachloride in rats. BMC Complement Altern Med. 2012 Sep. 16; 12(1):156.)
Rats are administered orally with CCl4 at a concentration of 0.25 μL/g in olive oil, 3 times per week for 6 weeks. Compound 22 is given 0.1-100 mg/Kg throughout the period of the experimental procedure or only 3 weeks after CCl4 administration and then throughout the entire study. […]

The target of a further test is Human LOXL2 (Homo sapiens (Human), UniProt Q9Y4K0). The test can be described thus: LOXL2 inhibition, peroxidase-coupled Amplex Red amine oxidase assay. The following applies: 30 min preincubation at 37° C., putrescine substrate. It is filed as biochemical. The gist of the method: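 Enzyme preincubated 30 min at 37 °C with compound (11-point curve) in 1.2 M urea, 50 mM borate pH 8.2 plus 1 μM mofegiline and 0.5 mM pargyline; putrescine at twice KM (10 mM for LOXL2), Amplex Red and HRP added. Fluorescence (565/590 nm) read every 2.5 min for 30 min; IC50 from kinetic slopes.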
Human LOXL2, sequence (Q9Y4K0 26-774): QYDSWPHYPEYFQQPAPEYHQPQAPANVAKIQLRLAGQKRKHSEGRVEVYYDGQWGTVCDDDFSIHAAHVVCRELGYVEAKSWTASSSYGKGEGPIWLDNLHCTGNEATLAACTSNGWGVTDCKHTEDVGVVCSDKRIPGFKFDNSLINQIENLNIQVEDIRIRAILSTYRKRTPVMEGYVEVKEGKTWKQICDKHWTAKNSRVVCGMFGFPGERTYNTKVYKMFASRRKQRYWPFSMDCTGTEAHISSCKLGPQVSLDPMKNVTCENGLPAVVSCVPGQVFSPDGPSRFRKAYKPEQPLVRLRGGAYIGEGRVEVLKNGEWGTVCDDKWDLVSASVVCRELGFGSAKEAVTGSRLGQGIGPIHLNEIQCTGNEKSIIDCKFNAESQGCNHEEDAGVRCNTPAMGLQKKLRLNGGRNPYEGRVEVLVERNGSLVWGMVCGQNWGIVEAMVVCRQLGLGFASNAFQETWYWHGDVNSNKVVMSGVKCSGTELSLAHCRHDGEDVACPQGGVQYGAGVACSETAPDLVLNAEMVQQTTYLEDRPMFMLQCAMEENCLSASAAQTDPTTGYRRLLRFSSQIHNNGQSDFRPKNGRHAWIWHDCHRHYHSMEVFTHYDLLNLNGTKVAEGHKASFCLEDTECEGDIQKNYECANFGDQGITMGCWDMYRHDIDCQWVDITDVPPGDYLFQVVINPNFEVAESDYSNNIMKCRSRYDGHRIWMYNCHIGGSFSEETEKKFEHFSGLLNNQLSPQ

Test [3] deals with Human recombinant SSAO/VAP-1 (Homo sapiens (Human), UniProt Q16853). The experiment in a line: Human recombinant SSAO/VAP-1 amine oxidase inhibition. It is filed as biochemical. The following applies: 30 min preincubation at 37° C., 600 μM benzylamine. The gist of the method: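 Purified SSAO/VAP-1 (residues 34-763, expressed in CHO Lec 8 cells; 0.25 μg/mL) preincubated 30 min at 37° C with compound in 0.1 M sodium phosphate pH 7.4. Reaction mix of 600 μM benzylamine, 120 μM Amplex Red and 1.5 U/mL HRP added; fluorescence (ex 565/em 590 nm) read every 2.5 min for 30 min; IC50 from kinetic slopes over 4-11 point curves.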
Human recombinant SSAO/VAP-1, sequence (Q16853 34-763): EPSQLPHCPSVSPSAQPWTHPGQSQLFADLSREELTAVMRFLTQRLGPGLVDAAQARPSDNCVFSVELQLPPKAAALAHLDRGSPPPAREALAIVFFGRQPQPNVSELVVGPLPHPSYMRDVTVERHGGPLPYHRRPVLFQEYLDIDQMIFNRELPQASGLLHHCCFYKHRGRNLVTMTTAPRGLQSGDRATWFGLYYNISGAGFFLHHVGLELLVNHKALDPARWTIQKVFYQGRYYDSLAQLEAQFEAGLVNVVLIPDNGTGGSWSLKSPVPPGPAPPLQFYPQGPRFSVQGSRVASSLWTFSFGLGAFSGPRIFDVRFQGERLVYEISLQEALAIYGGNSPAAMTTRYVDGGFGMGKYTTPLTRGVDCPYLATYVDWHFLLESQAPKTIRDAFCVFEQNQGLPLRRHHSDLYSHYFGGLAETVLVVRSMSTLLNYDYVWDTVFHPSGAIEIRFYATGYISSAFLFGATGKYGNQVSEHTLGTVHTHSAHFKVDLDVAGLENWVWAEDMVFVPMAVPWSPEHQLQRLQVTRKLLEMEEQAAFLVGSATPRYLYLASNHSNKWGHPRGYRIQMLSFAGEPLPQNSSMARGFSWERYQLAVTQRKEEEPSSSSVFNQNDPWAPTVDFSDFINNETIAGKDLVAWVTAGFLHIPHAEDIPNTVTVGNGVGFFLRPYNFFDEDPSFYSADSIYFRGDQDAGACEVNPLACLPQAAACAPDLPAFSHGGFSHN

A further test concerns the target Bovine LOX (Bos taurus (Bovine), UniProt P33072). The experiment in a line: LOX inhibition, peroxidase-coupled Amplex Red amine oxidase assay. The class given is biochemical. The following applies: 30 min preincubation at 37° C., putrescine substrate. The gist of the method: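 Bovine LOX in 1.2 M urea, 50 mM sodium borate pH 8.2 […]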

Structures are written as SMILES. Structures can show the parent of a compound that is named as a salt.

Bovine LOX, sequence (P33072 170-418): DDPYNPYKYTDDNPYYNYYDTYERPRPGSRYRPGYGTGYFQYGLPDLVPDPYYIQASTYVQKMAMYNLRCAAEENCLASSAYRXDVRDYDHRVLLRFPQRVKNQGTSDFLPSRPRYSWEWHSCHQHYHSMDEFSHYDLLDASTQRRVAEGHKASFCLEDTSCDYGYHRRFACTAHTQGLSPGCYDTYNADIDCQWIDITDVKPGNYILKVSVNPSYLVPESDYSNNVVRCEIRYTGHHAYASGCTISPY
Recombinant human MAO-B, sequence (P27338 whole entry): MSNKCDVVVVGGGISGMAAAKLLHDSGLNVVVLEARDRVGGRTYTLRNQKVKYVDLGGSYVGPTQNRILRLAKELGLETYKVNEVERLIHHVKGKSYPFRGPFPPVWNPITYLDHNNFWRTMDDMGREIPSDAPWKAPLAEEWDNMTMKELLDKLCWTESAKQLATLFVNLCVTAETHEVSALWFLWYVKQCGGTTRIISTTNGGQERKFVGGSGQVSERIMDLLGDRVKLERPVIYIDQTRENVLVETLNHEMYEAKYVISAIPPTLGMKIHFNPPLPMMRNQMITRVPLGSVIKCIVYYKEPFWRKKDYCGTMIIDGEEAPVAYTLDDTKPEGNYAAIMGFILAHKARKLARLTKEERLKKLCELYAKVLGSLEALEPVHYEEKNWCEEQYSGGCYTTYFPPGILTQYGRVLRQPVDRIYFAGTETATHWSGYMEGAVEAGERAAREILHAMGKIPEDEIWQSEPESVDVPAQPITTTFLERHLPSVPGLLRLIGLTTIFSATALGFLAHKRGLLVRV

Consider `N#CCCN` [BAPN, β-aminopropionitrile], for which the collagen cross-link formation entry in test [1] is reported as “reduced cross-link formation in a concentration dependent manner”.
For orientation: IC50 means the concentration needed to halve the response being measured. Turning to `CC(C)c1c(Cc2ccc(S(C)(=O)=O)nc2)c2ncccc2n1C/C(F)=C/CN` [Compound 22, trihydrochloride], the IC50 at Recombinant human MAO-B was more than 3000 nM; against Human LOXL2 it was less than 300 nM; in test [3], more than 3000 nM; on Bovine LOX, more than 300 nM. The “inhibition of liver collagen by hydroxyproline analysis” value in test [2] (CCl4 model, statistically significant) was more than 30%. The “reduction of liver fibrosis by sirius red staining with quantification” value in test [2] (rats, oral CCl4 3 times per week for 6 weeks, versus vehicle-treated group) is on record as “up to 50%”.
For the molecule `Cc1c(Cc2ccc(S(C)(=O)=O)c(Cl)c2)c2ncccc2n1C/C(F)=C/CN` [Compound 35, (Z)-4-(3-(3-chloro-4-(methylsulfonyl)benzyl)-2-methyl-1H-pyrrolo[3,2-b]pyridin-1-yl)-3-fluorobut-2-en-1-amine dihydrochloride], the IC50 on Recombinant human MAO-B was more than 3000 nM; at Human LOXL2 it was less than 300 nM; in test [3], more than 3000 nM; on Bovine LOX it was more than 300 nM.
`Cc1cc2c(cn1)c(Cc1ccc(S(C)(=O)=O)cc1)c(C)n2C/C(F)=C/CN` [Compound 36, (Z)-4-(2,6-dimethyl-3-(4-(methylsulfonyl)benzyl)-1H-pyrrolo[3,2-c]pyridin-1-yl)-3-fluorobut-2-en-1-amine dihydrochloride]: the IC50 is more than 3000 nM at Recombinant human MAO-B, less than 300 nM against Human LOXL2, more than 3000 nM in test [3] and more than 300 nM on Bovine LOX.
In the case of `Cc1cc2c(nn1)c(Cc1ccc(S(=O)(=O)N(C)C)cc1)c(C)n2C/C(F)=C/CN` [Compound 37, (Z)-4-((5-(4-amino-2-fluorobut-2-en-1-yl)-3,6-dimethyl-5H-pyrrolo[3,2-c]pyridazin-7-yl)methyl)-N,N-dimethylbenzenesulfonamide dihydrochloride], the IC50 was more than 3000 nM at Recombinant human MAO-B, less than 300 nM on Human LOXL2, more than 3000 nM in test [3] and more than 300 nM against Bovine LOX.
With `Cc1ncc2c(n1)c(Cc1ccc(S(C)(=O)=O)cc1)c(C)n2C/C(F)=C/CN` [Compound 38, (Z)-4-(2,6-dimethyl-7-(4-(methylsulfonyl)benzyl)-5H-pyrrolo[3,2-d]pyrimidin-5-yl)-3-fluorobut-2-en-1-amine dihydrochloride], the IC50 on Recombinant human MAO-B was more than 3000 nM; at Human LOXL2 it was less than 300 nM; in test [3], more than 3000 nM; on Bovine LOX it was more than 300 nM.
`Cc1ncc2c(n1)c(Cc1ccc(S(=O)(=O)N(C)C)cc1)c(C)n2C/C(F)=C/CN` [Compound 39, (Z)-4-((5-(4-amino-2-fluorobut-2-en-1-yl)-2,6-dimethyl-5H-pyrrolo[3,2-d]pyrimidin-7-yl)methyl)-N,N-dimethylbenzenesulfonamide dihydrochloride]: the IC50 at Recombinant human MAO-B was more than 3000 nM; against Human LOXL2, less than 300 nM; in test [3] it was more than 3000 nM; against Bovine LOX, more than 300 nM.
Regarding `Cc1ccc2c(n1)c(CCc1ccc(S(C)(=O)=O)cc1)c(C)n2C/C(F)=C/CN` [Compound 40, (Z)-4-(2,5-dimethyl-3-(4-(methylsulfonyl)phenethyl)-1H-pyrrolo[3,2-b]pyridin-1-yl)-3-fluorobut-2-en-1-amine dihydrochloride], the IC50 on Recombinant human MAO-B was more than 3000 nM; against Human LOXL2 it was less than 300 nM; in test [3], more than 3000 nM; against Bovine LOX, more than 300 nM.
On to `CC(C)c1c(Cc2ccc(S(=O)(=O)C(C)C)nc2)c2ncccc2n1C/C(F)=C/CN` [Compound 41, (Z)-3-fluoro-4-(2-isopropyl-3-((6-(isopropylsulfonyl)pyridin-3-yl)methyl)-1H-pyrrolo[3,2-b]pyridin-1-yl)but-2-en-1-amine hydrochloride], for which the IC50 was more than 3000 nM on Recombinant human MAO-B, less than 300 nM against Human LOXL2, more than 3000 nM in test [3] and more than 300 nM against Bovine LOX.
Consider `CC(C)c1c(C(O)c2ccc(S(C)(=O)=O)nc2)c2ncccc2n1C/C(F)=C/CN` (stereo not drawn) [Compound 42, (Z)-(1-(4-amino-2-fluorobut-2-en-1-yl)-2-isopropyl-1H-pyrrolo[3,2-b]pyridin-3-yl)(6-(methylsulfonyl)pyridin-3-yl)methanol dihydrochloride], for which the IC50 on Recombinant human MAO-B was more than 3000 nM; against Human LOXL2 it was less than 300 nM; in test [3], more than 3000 nM; at Bovine LOX, more than 300 nM.

The values are drawn from patent publication US10717734B2, “Indole and azaindole haloallylamine derivative inhibitors of lysyl oxidases and uses thereof” (PHARMAXIS LTD., priority 2016, dated 2020).
